Read-outs that look alike come from different tables or passages of the source.
Key:
[1] = tested on: isolated perfused guineapig hearts; assay: Coronary and circulatory activity on isolated perfused guineapig hearts; settings: Cavia porcellus, 10^-6 g/ml, difference to starting pressure set as 100%
Text: The coronary and circulatory activities were discovered using isolated perfused guineapig hearts.
For this, the hearts of 250 to 350 g guineapigs are used. The animals are killed by a blow to the head, the thorax is opened, and a metal cannula is tied into the exposed aorta. The heart is removed from the thorax with the lungs and is connected to the perfusion apparatus through an aortic cannula, with continuous perfusion. The lungs are removed at the lung roots. A Krebs Henseleit solution (1) (118.5 mmol/l of NaCl, 4.75 mmol/l of KCl, 1.19 mmol/l of KH2 PO4, 1.19 mmol/l of MgSO4, 25 mmol/l of NaHCO3, 0.013 mmol/l of Na2 EDTA), which contains 1.2 mmol/l of CaCl2, is used as the perfusion medium. 10 mmol/l of glucose are added as an energy-liberating substrate. Before the perfusion the solution is filtered until free of particles. The solution is gassed with Carbogen (95% O2, 5% CO2) in order to maintain a pH value of 7.4. The hearts are perfused at a constant flow rate (10 ml/min) at 32° C. using a peristaltic pump.
In order to measure the cardiac function, a latex balloon filled with liquid and connected through a column of liquid to a pressure gauge is introduced into the left ventricle through the left auricle, and the isovolumetric contractions are recorded on a high-speed recorder (Opie, L., J. Physiol. 180 (1965) 529-541). The perfusion pressure is recorded using a pressure gauge which is connected to the perfusion system upstream of the heart. Under these conditions a decrease in the perfusion pressure indicates coronary dilation, and a rise or fall in the amplitude of contraction of the left ventricle indicates an increase or decrease in cardiac contractility. The compounds according to the invention are infused into the perfusion medium at suitable dilutions just upstream of the isolated heart.
The following values show, as an example, the effect of the compounds according to the invention on isolated perfused guineapig hearts, expressed as the percentage difference to the starting pressure, set as equivalent to 100%.

TXA2 synthesis = assay: Inhibition of TXA2 synthesis (3H-arachidonic acid metabolism in washed human thrombocytes, TLC); assay type: cell-based; settings: 10 min, 2 min pre-incubation, 10 min with 3H-arachidonic acid, 37° C., read-out: Minimal effective concentration for inhibition (MEC) of TXA2 synthesis
Text: Arachidonic acid metabolism in human thrombocytes was investigated using tritium-labelled arachidonic acid. Thrombocytes metabolize arachidonic acid to TXA2 and HHT via the cyclooxygenase pathway and to 12-HETE via the lipoxygenase pathway, which can be separated by thin layer chromatography [cf Bailey, J.M. et al., Prostaglandins 13, 479-492, (1977)], Inhibitors of the individual enzymatic reactions alter the chromatographic distribution pattern in a characteristic manner.
Washed human thrombocytes from healthy donors who had taken no drug for 14 days were incubated for 2 minutes at 37° C. with the test substance and then incubated for a further 10 minutes at 37° C. with ^3 H-arachidonic acid. The suspension was acidified and extracted with ethyl acetate. The ethyl acetate was evaporated off under a nitrogen atmosphere and the residue was taken up in methanol/trichloromethane (1:1) and applied to TLC plastic sheets. Separation was performed using a trichloromethane/methanol/glacial acetic acid/water (80:8:1:0.8) mobile solvent mixture. The distribution of radioactivity was measured by means of a radioscanner (Table 1).

PGI2 synthesis = assay: Prostacyclin stimulation in whole blood (collagen-induced, 6-keto-PGF1α radioimmunologically); assay type: cell-based; settings: read-out: Stimulation of PGI2 synthesis (MEC)
Description: The 1,4-dihydrophyridines to be used according to the invention additionally stimulate the synthesis of PGI2. PGI2 has vasodilating and thrombocyte aggregation inhibiting activity, in contrast with the vasoconstrictor and thrombocyte aggregation […] action of thromboxan.
In whole blood, collagen induces the formation of PGI2. The endoperoxides formed in the thrombocytes are probably converted into PGI2 by leucocytes. The stable end product of PGI2 conversion, 6-keto-PGF1 α, is determined radioimmunologically (Table 2).

[2] = decrease indicates coronary dilation, read-out: % alteration in perfusion pressure
[3] = read-out: % alteration in contractility

SMILES | inhibition at 1 µg/mL [1, 3] | minimal effective concentration (TXA2 synthesis) | further results
CCOC(=O)C1=C(C)NC(C)=C(C(=O)OCc2ccc(C3=NNC(=O)CC3)cc2)C1c1cccc([N+](=O)[O-])c1 (stereo not shown) [Example 7, Ethyl 4-(6-oxo-1,4,5,6-tetrahydropyridazin-3-yl)benzyl 1,4-dihydro-2,6-dimethyl-4-(3-nitrophenyl)-pyridine-3,5-dicarboxylate] | 60% |  | percent change at 1 µg/mL [1, 2]: 0%
CC1=C(C(=O)OCCCc2cccnc2)C(CCc2cccnc2)C(C(=O)OCc2ccc(C3=NNC(=O)CC3)cc2)=C(C)N1 (stereo not shown) [Example 11] | 23% | 0.1 µg/mL | inhibition at 1 µg/mL [1, 2]: 36%
COC(=O)C1=C(C)NC(C)=C(C(=O)OCc2ccc(C3=NNC(=O)CC3)cc2)C1c1ccccc1Cl (stereo not shown) [Example 13] | 78% |  | percent change at 1 µg/mL [1, 2]: 0%
COC(=O)C1=C(C)NC(C)=C(C(=O)OCc2ccc(C3=NNC(=O)CC3)cc2)C1CCc1cccnc1 (stereo not shown) [Example 16] |  | 0.1 µg/mL | 
CC(=O)C1=C(C)NC(C)=C(C(=O)OCc2ccc(C3=NNC(=O)CC3)cc2)C1CCc1cccnc1 (stereo not shown) [Example 18] |  | 0.1 µg/mL | 
CC1=C(C#N)C(CCc2cccnc2)C(C(=O)OCc2ccc(C3=NNC(=O)CC3)cc2)=C(C)N1 (stereo not shown) [Example 19] |  | 0.1 µg/mL | 
COC(=O)C1=C(C)NC(C)=C(C(=O)OCCc2ccc(C3=NNC(=O)CC3)cc2)C1CCc1cccnc1 (stereo not shown) [Example 21] |  |  | minimal effective concentration (PGI2 synthesis): < 3 µg/mL
CC1=C(C(=O)OCCCc2cccnc2)C(CCc2cccnc2)C(C(=O)OCCc2ccc(C3=NNC(=O)CC3)cc2)=C(C)N1 (stereo not shown) [Example 22] |  | < 0.1 µg/mL | minimal effective concentration (PGI2 synthesis): < 1 µg/mL

Reference: US4876255A, “Substituted 1,4-dihydropyridines for control of circulation and thromboses” (Bayer Aktiengesellschaft, priority 1987, dated 1989)
